Test results: patent US7485641B2, “Substituted 3-amino-pyrrolidino-4-lactams” (Pfizer, Inc., priority 2006, dated 2009)
Counter-ions that a name gives are not always drawn.

target: T1, DPP-IV (Homo sapiens, UniProt P27487); assay: In vitro assay for dipeptidyl peptidase inhibition; format: biochemical; conditions: Examples 156-162; n-value in brackets; IC50's or percent inhibition at 300 nM; read-out: DPP-IV inhibition
T1 construct: purchased Enzyme Systems Products SPE-01
T1 sequence (P27487 whole entry, species assumed): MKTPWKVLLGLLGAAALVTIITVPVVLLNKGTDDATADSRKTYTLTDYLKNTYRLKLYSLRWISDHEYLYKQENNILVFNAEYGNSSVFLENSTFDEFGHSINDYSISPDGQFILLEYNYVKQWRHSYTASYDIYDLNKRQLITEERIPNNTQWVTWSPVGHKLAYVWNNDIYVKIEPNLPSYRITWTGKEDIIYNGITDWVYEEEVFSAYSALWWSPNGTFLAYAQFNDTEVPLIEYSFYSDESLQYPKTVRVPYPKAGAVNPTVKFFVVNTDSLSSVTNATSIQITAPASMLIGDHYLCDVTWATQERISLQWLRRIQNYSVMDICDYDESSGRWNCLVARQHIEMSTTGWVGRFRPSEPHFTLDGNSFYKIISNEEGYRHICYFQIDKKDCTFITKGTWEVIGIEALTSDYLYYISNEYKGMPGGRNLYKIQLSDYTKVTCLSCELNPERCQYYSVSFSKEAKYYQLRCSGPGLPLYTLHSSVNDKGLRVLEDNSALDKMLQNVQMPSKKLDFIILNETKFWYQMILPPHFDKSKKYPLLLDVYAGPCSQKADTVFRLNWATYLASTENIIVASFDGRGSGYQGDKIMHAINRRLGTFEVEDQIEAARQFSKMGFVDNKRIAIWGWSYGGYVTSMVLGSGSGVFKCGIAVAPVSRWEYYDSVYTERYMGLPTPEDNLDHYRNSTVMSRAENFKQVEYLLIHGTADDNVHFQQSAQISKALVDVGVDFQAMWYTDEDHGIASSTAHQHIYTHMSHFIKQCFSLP

IC50	Compound
0.187 µM	N[C@H]1CN(C(=O)c2cc3ccccc3o2)C[C@@H]1N1CCCCC1=O [Example 156, 1-[(3S,4S)-4-Amino-1-(benzofuran-2-carbonyl)-pyrrolidin-3-yl]-piperidin-2-one hydrochloride]
0.212 µM	N[C@H]1CN(C(=O)c2cc3cc(Cl)ccc3o2)C[C@@H]1N1CCCCC1=O [Example 157, 1-((3S,4S)-4-amino-1-(5-chlorobenzofuran-2-carbonyl)pyrrolidin-3-yl)piperidin-2-onetrifluoroacetate]
0.231 µM	N[C@H]1CN(C(=O)c2cc3ccc(Cl)cc3o2)C[C@@H]1N1CCCCC1=O [Example 158, 1-((3S,4S)-4-amino-1-(6-chlorobenzofuran-2-carbonyl)pyrrolidin-3-yl)piperidin-2-onetrifluoroacetate]
0.0793 µM	COc1ccc2oc(C(=O)N3C[C@H](N)[C@@H](N4CCCCC4=O)C3)cc2c1 [Example 159, 1-[(3S,4S)-4-Amino-1-(5-methoxy-benzofuran-2-carbonyl)-pyrrolidin-3-yl]-piperidin-2-onehydrochloride]
0.317 µM	N[C@H]1CN(C(=O)c2cc3ccccc3s2)C[C@@H]1N1CCCCC1=O [Example 160, 1-[(3S,4S)-4-Amino-1-(benzo[b]thiophene-2-carbonyl)-pyrrolidin-3-yl]-piperidin-2-onehydrochloride]
1.16 µM	N[C@H]1CN(C(=O)c2cc3cc(Cl)ccc3[nH]2)C[C@@H]1N1CCCCC1=O [Example 161, 1-[(3S,4S)-4-Amino-1-(5-chloro-1H-indole-2-carbonyl)-pyrrolidin-3-yl]-piperidin-2-onehydrochloride]
1.46 µM	COc1ccc2[nH]c(C(=O)N3C[C@H](N)[C@@H](N4CCCCC4=O)C3)cc2c1 [Example 162, 1-[(3S,4S)-4-Amino-1-(5-methoxy-1H-indole-2-carbonyl)-pyrrolidin-3-yl]-piperidin-2-onehydrochloride]

same assay, conditions: at 300 nM; n-value given in brackets

DPP-IV Percent Inhibition at 300 nM	Compound
47/3%(4)	N[C@H]1CN(c2ncnc3cc(OS(=O)(=O)c4ccc(F)cc4)ccc23)C[C@@H]1N1CCCCC1=O [Example 142, 4-Fluoro-benzenesulfonic acid 4-[(3S,4S)-3-amino-4-(2-oxo-piperidin-1-yl)-pyrrolidin-1-yl]-quinazolin-7-ylester]

same assay, conditions: at 300 nM; n-value given in brackets; read-out: DPP-IV Percent Inhibition at 300 nM

inhibition at 0.3 µM	Compound
24.1%	CC(C)S(=O)(=O)c1ccc2c(N3C[C@H](N)[C@@H](N4CCCCC4=O)C3)ncnc2c1 [Example 138, 1-((3S,4S)-4-amino-1-(7-(isopropylsulfonyl)quinazolin-4-yl)pyrrolidin-3-yl)piperidin-2-one trifluoroacetate]
33.5%	CCS(=O)(=O)c1ccc2c(N3C[C@H](N)[C@@H](N4CCCCC4=O)C3)ncnc2c1 [Example 139, 1-((3S,4S)-4-amino-1-(7-(ethylsulfonyl)quinazolin-4-yl)pyrrolidin-3-yl)piperidin-2-one]
41%	N[C@H]1CN(c2ncnc3cc(OS(=O)(=O)c4ccc(F)c(F)c4)ccc23)C[C@@H]1N1CCCCC1=O [Example 144, 4-((3S,4S)-3-amino-4-(2-oxopiperidin-1-yl)pyrrolidin-1-yl)quinazolin-7-yl 3,4-difluorobenzenesulfonate]

same assay, conditions: n-value given in brackets; read-out: DPP-IV IC50

IC50	Compound
0.00839 µM	N[C@H]1CN(c2cc(N3CCC(F)(F)C3)ncn2)C[C@@H]1N1CC(F)(F)CCC1=O [Example 2, 1-((3S,4S)-4-amino-1-(6-(3,3-difluoropyrrolidin-1-yl)pyrimidin-4-yl)pyrrolidin-3-yl)-5,5-difluoropiperidin-2-one]
0.72 µM	CSc1ccc(Sc2ccc3c(N4C[C@H](N)[C@@H](N5CCCCC5=O)C4)ncnc3c2)cc1 [Example 132]
0.2 µM	N[C@H]1CN(c2ncnc3cc(Oc4ccc(OC(F)(F)F)cc4)ccc23)C[C@@H]1N1CCCCC1=O [Example 133, 1-((3S,4S)-4-amino-1-(7-(4-(trifluoromethoxy)phenoxy)quinazolin-4-yl)pyrrolidin-3-yl)piperidin-2-one]
0.218 µM	CCS(=O)(=O)Oc1ccc2c(N3C[C@H](N)[C@@H](N4CCCCC4=O)C3)ncnc2c1 [Example 134, 4-((3S,4S)-3-amino-4-(2-oxopiperidin-1-yl)pyrrolidin-1-yl)quinazolin-7-yl ethanesulfonate]
0.128 µM	CS(=O)(=O)Oc1ccc2c(N3C[C@H](N)[C@@H](N4CCCCC4=O)C3)ncnc2c1 [Example 135, 4-((3S,4S)-3-amino-4-(2-oxopiperidin-1-yl)pyrrolidin-1-yl)quinazolin-7-yl methanesulfonate]
0.135 µM	CC(C)S(=O)(=O)Oc1ccc2c(N3C[C@H](N)[C@@H](N4CCCCC4=O)C3)ncnc2c1 [Example 136, 4-((3S,4S)-3-amino-4-(2-oxopiperidin-1-yl)pyrrolidin-1-yl)quinazolin-7-yl propane-2-sulfonate]
0.116 µM	CC(C)Sc1ccc2c(N3C[C@H](N)[C@@H](N4CCCCC4=O)C3)ncnc2c1 [Example 137, 1-((3S,4S)-4-amino-1-(7-(isopropylthio)quinazolin-4-yl)pyrrolidin-3-yl)piperidin-2-one]
0.055 µM	CCSc1ccc2c(N3C[C@H](N)[C@@H](N4CCCCC4=O)C3)ncnc2c1 [Example 140, 1-((3S,4S)-4-amino-1-(7-(ethylthio)quinazolin-4-yl)pyrrolidin-3-yl)piperidin-2-one]
0.278 µM	CS(=O)(=O)c1ccc(S(=O)(=O)Oc2ccc3c(N4C[C@H](N)[C@@H](N5CCCCC5=O)C4)ncnc3c2)cc1 [Example 141, 4-((3S,4S)-3-amino-4-(2-oxopiperidin-1-yl)pyrrolidin-1-yl)quinazolin-7-yl 4-(methylsulfonyl)benzenesulfonate]
0.28 µM	N[C@H]1CN(c2ncnc3cc(OS(=O)(=O)c4ccc(F)cc4F)ccc23)C[C@@H]1N1CCCCC1=O [Example 143, 4-((3S,4S)-3-amino-4-(2-oxopiperidin-1-yl)pyrrolidin-1-yl)quinazolin-7-yl 2,4-difluorobenzenesulfonate]
0.224 µM	N[C@H]1CN(c2nncc3ccccc23)C[C@@H]1N1CCCCC1=O [Example 145, 1-((3S,4S)-4-amino-1-(phthalazin-1-yl)pyrrolidin-3-yl)piperidin-2-one trifluoroacetate]
0.0462 µM	COc1ccc2c(N3C[C@H](N)[C@@H](N4CCCCC4=O)C3)nncc2c1 [Example 146, 1-((3S,4S)-4-amino-1-(6-methoxyphthalazin-1-yl)pyrrolidin-3-yl)piperidin-2-one]
0.133 µM	COc1nc(OC)nc(N2C[C@H](N)[C@@H](N3CCCCC3=O)C2)n1 [Example 147, 1-[(3S,4S)-4-Amino-1-(4,6-dimethoxy-[1,3,5]triazin-2-yl)-pyrrolidin-3-yl]-piperidin-2-onetrifluoroacetate]
0.415 µM	N[C@H]1CN(c2ncnc3[nH]cnc23)C[C@@H]1N1CCCCC1=O [Example 148, 1-[(3S,4S)-4-Amino-1-(9H-purin-6-yl)-pyrrolidin-3-yl]-piperidin-2-one hydrochloride]
0.497 µM	N[C@H]1CN(c2ncnc3c2ncn3CC(F)(F)F)C[C@@H]1N1CCCCC1=O [Example 149, 1-{(2S,4S)-4-Amino-1-[9-(2,2,2-trifluoro-ethyl)-9H-purin-6-yl]-pyrrolidin-3-yl}-piperidin-2-onehydrochloride]
0.189 µM	N[C@H]1CN(c2ncnc3c2ncn3C2CC2)C[C@@H]1N1CCCCC1=O [Example 150, 1-[(3S,4S)-4-Amino-1-(9-cyclopropyl-9H-purin-6-yl)-pyrrolidin-3-yl]-piperidin-2-one hydrochloride]
> 3 µM	N[C@H]1CN(c2ncnc3c2ncn3C2CC2)C[C@@H]1N1CCCC1=O [Example 151, 1-((3S,4S)-4-Amino-1-(9-cyclopropyl-9H-purin-6-yl)pyrrolidin-3-yl)pyrrolidin-2-one hydrochloride]
> 30 µM	COc1ccc(Cl)c2c(N3C[C@H](N)[C@@H](N4CCCCC4=O)C3)ncnc12 [Example 152, 1-((3S,4S)-4-amino-1-(5-chloro-8-methoxyquinazolin-4-yl)pyrrolidin-3-yl)piperidin-2-one trifluoroacetate]
0.0786 µM	N[C@H]1CN(C(=O)c2cc3cc(Cl)ccc3o2)C[C@@H]1N1CC(F)(F)CCC1=O [Example 153, 1-((3S,4S)-4-amino-1-(5-chlorobenzofuran-2-carbonyl)pyrrolidin-3-yl)-5,5-difluoropiperidin-2-one]
0.0923 µM	N[C@H]1CN(C(=O)c2cc3cc(Cl)ccc3o2)C[C@@H]1N1CCCCC1=O [Example 154, 1-[(3S,4S)-4-Amino-1-[(5-chloro-1-benzofuran-2-yl)carbonyl]-pyrrolidin-3-yl]-piperidin-2-one hydrochloride]
0.102 µM	COc1ccc2oc(C(=O)N3C[C@H](N)[C@@H](N4CC(F)(F)CCC4=O)C3)cc2c1 [Example 155, 1-((3S,4S)-4-amino-1-(5-methoxybenzofuran-2-carbonyl)pyrrolidin-3-yl)-5,5-difluoropiperidin-2-one]
0.227 µM	N-((R)-1-{4-[(3S,4S)-3-Amino-4-(2-oxo-piperidin-1-yl)-pyrrolidin-1-yl]-[1,3,5]triazin-2-yl}-pyrrolidin-3-yl)-acetamidetrifluoracetate [Example 43]

system: KK/H1J mice; assay: In vivo assay for glucose lowering (oral glucose tolerance test); conditions: 4-6 week old fasted KK/H1J mice, oral dosing in 0.5% methylcellulose, glucose at 15 minutes, plasma glucose at 45 minutes
Description: The glucose lowering effects of the compound of Example 2 were exemplified in 4-6 week old KK/H1J mice (Jackson Labs) in the context of an oral glucose tolerance test.
The mice were fasted overnight (about 14-18 hours), but allowed free access to water. After fasting, (time “t”=0), 25 μL of blood was drawn from the retro-orbital sinus and added to 0.025% heparinized saline (100 μL) on ice. The mice (10 per group) were then orally dosed with a solution of a compound of formula (1) in 0.5% methylcellulose (0.2 mL/mouse). Two controls groups received only 0.5% methylcellulose. At time=15 minutes, the mice were bled, as described above, and then dosed with […] glucose in distilled water (0.2 mL/mouse). The first control group was dosed with glucose. The second control group was dosed with water. At time=45 minutes, the mice were again bled, as described above. The blood samples were centrifuged, the plasma collected and analyzed for glucose content on a Roche-Hitachi 912 glucose analyzer.

Compound	percent (%) inhibition of glucose excursion relative to the two control groups
N[C@H]1CN(c2cc(N3CCC(F)(F)C3)ncn2)C[C@@H]1N1CC(F)(F)CCC1=O [Example 2, 1-((3S,4S)-4-amino-1-(6-(3,3-difluoropyrrolidin-1-yl)pyrimidin-4-yl)pyrrolidin-3-yl)-5,5-difluoropiperidin-2-one]	39.8%
